{
  "source": "patent US20120065084A1",
  "about": "“METHODS AND TOOLS FOR PREDICTING THE EFFICIENCY OF ANTHRACYCLINES IN CANCER” (UNIVERSITE LIBRE DE BRUXELLES, priority 2010, published 2012)",
  "test_system": "primary breast tumor",
  "experiment": "neoadjuvant prospective TOP trial: pathological complete response to anthracyclines (epirubicin) monotherapy",
  "type": "in vivo, human",
  "description": "One hundred and forty-nine patients were included in the prospective TOP trial. Out of these patients, 89 received 4 cycles of anthracyclines every 3 weeks, 59 patients received 6 cycles of anthracyclines administered every 2 weeks (dose-dense scheme) and one was not treated according to the protocol due to ineligibility.\nThe neoadjuvant prospective “TOP” (Trial of Principle) trial was conducted at different European hospitals and coordinated by the Institut Jules Bordet. This study is registered on the clinical trials site of the US National Cancer Institute website http://clinicaltrials.gov/ct2/show/NCT00162812?term=NCT00162812&rank=1. One hundred and forty-nine patients have been included in this trial. Anthracyclines (Epirubicin) monotherapy (100 mg/m2) was given as neo-adjuvant chemotherapy: every 3 weeks×4 cycles for early BC or every 2 weeks×6 cycles with Neulasta® 6 mg on day 2 for patients with inflammatory or locally advanced breast cancer. At completion of chemotherapy, every patient underwent surgery with axillary node sampling. After surgery, adjuvant docetaxel (100 mg/m2×4 cycles) and loco-regional irradiation were administered using standard criteria. This study was primarily designed for the identification of biomarkers of response to anthracyclines (epirubicin).\nAll patients underwent pretreatment core biopsies of the primary breast tumor before starting neo-adjuvant chemotherapy using a 14G needle. Two biopsies were embedded in OCT (Sakura), frozen in liquid nitrogen within 5 minutes and transferred to a −80° C. freezer. Two biopsies were fixed in formalin and embedded in paraffin. Both fixed and frozen samples were retrieved and stored at the Institut Jules Bordet in Brussels, where the TOP2A evaluations were carried out. Pathologic response was determined by microscopic examination of the excised tumor and nodes after completion of chemotherapy. Pathological complete response (pCR) was defined by the absence of residual invasive breast carcinoma (macro and microscopic) in the breast and in the axillary nodes. Persistence of in-situ carcinoma without invasive component was considered pCR.",
  "data": [
    {"smiles": "COc1cccc2c1C(=O)c1c(O)c3c(c(O)c1C2=O)C[C@@](O)(C(=O)CO)C[C@@H]3O[C@H]1C[C@H](N)[C@@H](O)[C@H](C)O1", "note": "[anthracyclines, Epirubicin]", "values": [
      {"measurement": "pathological complete response (pCR) rate", "setting": "3-weekly scheme (every 3 weeks x 4 cycles)", "value": 14, "unit": "%"},
      {"measurement": "proportion of patients who presented a pCR", "setting": "HER2-negative patients (FISH)", "value": 10, "unit": "%"},
      {"measurement": "proportion of patients who presented a pCR", "setting": "HER2-positive patients (FISH)", "value": 23, "unit": "%"},
      {"measurement": "pathological complete response (pCR) rate", "setting": "all patients of the TOP trial, neo-adjuvant epirubicin monotherapy 100 mg/m2", "value": 15, "unit": "%"},
      {"measurement": "pathological complete response (pCR) rate", "setting": "dose-dense scheme (every 2 weeks x 6 cycles)", "value": 16, "unit": "%"},
      {"measurement": "patients who responded to the anthracyclines therapy (pCR)", "setting": "patients whose tumors had no TOP2A amplification (FISH)", "value": 9, "unit": "%"},
      {"measurement": "patients who responded to the anthracyclines therapy (pCR)", "setting": "patients with TOP2A amplified tumors (FISH)", "value": 55, "unit": "%"}
    ]}
  ]
}
